Patent US6333311A, “Useful properties of human lactoferrin and variants thereof” (Pharming, priority 1998, dated 2001)

What was measured:
human transferrin (hTF) = human transferrin (hTF) (Homo sapiens, UniProt P02787); experiment: Competitive inhibition of hLF binding to solid-phase lipid A, competitor hTF; conditions: hTF as competitor of 12.5 nM biotinylated hLF binding to immobilized lipid A
[1] = molecular target: T1, human lactoferrin, iron-saturated hLF (Homo sapiens, UniProt P02788); experiment: Competitive inhibition of hLF binding to solid-phase lipid A, competitor iron-saturated hLF; conditions: concentration of unlabelled iron-saturated hLF giving 50% inhibition of the response of 12.5 nM biotinylated hLF on immobilized lipid A; mean ± SD of at least 4 experiments
T1 construct: Human LF was purified from fresh human milk by cation-exchange chromatography; from tissue; host or cells: fresh human milk
T1 sequence (P02788 with tags, fused parts or gaps limits assumed): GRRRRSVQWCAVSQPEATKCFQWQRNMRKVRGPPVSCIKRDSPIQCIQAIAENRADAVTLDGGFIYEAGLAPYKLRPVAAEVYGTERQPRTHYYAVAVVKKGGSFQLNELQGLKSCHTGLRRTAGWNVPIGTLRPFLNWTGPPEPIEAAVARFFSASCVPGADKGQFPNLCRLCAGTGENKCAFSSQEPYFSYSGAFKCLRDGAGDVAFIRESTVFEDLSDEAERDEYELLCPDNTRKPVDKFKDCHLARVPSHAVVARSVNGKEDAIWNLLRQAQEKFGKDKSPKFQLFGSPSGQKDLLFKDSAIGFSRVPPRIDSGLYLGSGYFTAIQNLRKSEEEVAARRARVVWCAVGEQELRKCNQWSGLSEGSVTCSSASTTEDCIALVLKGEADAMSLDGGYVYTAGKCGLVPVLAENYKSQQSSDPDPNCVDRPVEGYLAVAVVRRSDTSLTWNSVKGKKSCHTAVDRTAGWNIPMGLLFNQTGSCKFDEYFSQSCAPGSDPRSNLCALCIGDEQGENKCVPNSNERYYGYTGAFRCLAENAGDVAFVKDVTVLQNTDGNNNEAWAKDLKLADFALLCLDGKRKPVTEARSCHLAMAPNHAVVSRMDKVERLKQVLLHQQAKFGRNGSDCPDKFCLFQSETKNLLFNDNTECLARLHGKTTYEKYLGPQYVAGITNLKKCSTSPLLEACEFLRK

[2] = molecular target: T2, human lactoferrin, natural hLF (purified from human milk, 3.5% saturated with iron) (Homo sapiens, UniProt P02788); experiment: Competitive inhibition of hLF binding to solid-phase lipid A, competitor natural hLF; conditions: concentration of unlabelled natural hLF giving 50% inhibition of the response of 12.5 nM biotinylated hLF on immobilized lipid A; mean ± SD of at least 4 experiments
T2 construct: Human LF was purified from fresh human milk by cation-exchange chromatography; from tissue; host or cells: fresh human milk
T2 sequence (P02788 with tags, fused parts or gaps limits assumed): as above

Sequence of human transferrin (hTF) (P02787 20-698): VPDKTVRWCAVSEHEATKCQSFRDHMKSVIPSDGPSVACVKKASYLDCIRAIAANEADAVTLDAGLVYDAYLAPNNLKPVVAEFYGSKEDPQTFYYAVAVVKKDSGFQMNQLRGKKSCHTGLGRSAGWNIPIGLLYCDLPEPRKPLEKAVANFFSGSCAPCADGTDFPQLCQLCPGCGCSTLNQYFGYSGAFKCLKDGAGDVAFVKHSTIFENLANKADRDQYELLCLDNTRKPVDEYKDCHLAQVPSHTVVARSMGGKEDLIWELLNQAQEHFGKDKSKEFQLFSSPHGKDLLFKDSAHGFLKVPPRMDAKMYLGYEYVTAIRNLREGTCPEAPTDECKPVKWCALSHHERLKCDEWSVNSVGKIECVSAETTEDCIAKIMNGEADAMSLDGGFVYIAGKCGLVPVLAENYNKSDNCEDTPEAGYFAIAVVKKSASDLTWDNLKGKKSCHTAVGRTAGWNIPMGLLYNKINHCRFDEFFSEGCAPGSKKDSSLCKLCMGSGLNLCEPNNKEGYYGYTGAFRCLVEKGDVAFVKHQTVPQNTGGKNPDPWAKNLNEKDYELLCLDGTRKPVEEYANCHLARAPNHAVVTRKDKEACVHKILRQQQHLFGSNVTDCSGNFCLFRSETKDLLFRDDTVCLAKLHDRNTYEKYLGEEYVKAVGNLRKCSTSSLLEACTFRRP

With Lipid A the “IC50 Competitor, hTF” value (human transferrin (hTF)) was “no competition”, the IC50 [1] was 1.3 ± 0.4 nM and the IC50 [2] was 1.7 ± 0.5 nM.
